Reference: patent publication US4530714A, “N-aliphatic and N,N-aliphatic phosphoric triamide urease inhibitors and urease inhibited urea based fertilizer compositions” (Allied Corporation, priority 1984, dated 1985)

What was measured:
[1] = test system: urease; experiment: Long term urease inhibition, inhibited Cazenovia soil preincubated or left open 11 days before urea application; type: biochemical; settings: 200 micrograms compound; for % Inhibition, Preincubated for 11 days Open: allowed to volatilize for 11 days prior to urea application; for % Inhibition, Preincubated for 11 days at 25° C.: inhibited soil incubated 11 days at 25° C. prior to urea application; for % Inhibition, Preincubated for 11 days at 35° C.: inhibited soil incubated 11 days at 35° C. prior to urea application
Procedure: (§1) Efficacy tests were conducted to evaluate the efficacy of certain representative phosphoric triamide compounds as urease inhibitors. The inhibition tests were run in a New York soil (Cazenovia silt loam, pH 7.0 or 7.3) or in a Wisconsin Soil (Plano silt loam, pH 5.3). Evaluations (run in triplicate) consisted of applying 800 micrograms of the test compound in 5 mL of water and 42.8 mg of urea in 1 mL of water to 20 g of air-dry soil in a glass bottle. The bottle was capped with perforated aluminum foil and incubated at 25° C. for three days prior to extraction with 100 mL of a 2M potassium chloride solution containing 0.5 mg of phenylmercuric acetate. The extracts were then analyzed for remaining urea using an autoanalyzer. Percent inhibition was calculated as
(§2) % Inhibition=[1-(A-B/A-C)]×100%
(§3) where A is urea recovered from unincubated sample (urea added to soil and immediately extracted); B is urea recovered from inhibited sample; and C is urea recovered from the control (uninhibited sample).
The percent inhibition observed, as determined by the means described in Example XVI except using 200 micrograms of the test compound, are set forth in Table II

[2] = test system: urease; experiment: Soil urease inhibition efficacy test, Cazenovia silt loam (New York soil); type: biochemical; settings: 25° C., three days; for % Inhibition Cazenovian pH 7.3: Cazenovia silt loam pH 7.3, 800 micrograms compound and 42.8 mg urea per 20 g soil; for % Inhibition Cazenovian pH 7.0: Cazenovia silt loam pH 7.0, 200 micrograms compound per 20 g soil
Procedure: as §1, with “Evaluations (run in triplicate) consisted of applying 800 micrograms of the test compound in 5 mL of water and 42.8 mg of urea in 1 mL of water to 20 g of air-dry soil in a glass bottle.” left out
as §2, §3

[3] = test system: urease; experiment: Soil urease inhibition efficacy test, Plano silt loam (Wisconsin soil); type: biochemical; settings: Plano silt loam pH 5.3, 25° C., three days
Procedure: as §1, with “Evaluations (run in triplicate) consisted of applying 800 micrograms of the test compound in 5 mL of water and 42.8 mg of urea in 1 mL of water to 20 g of air-dry soil in a glass bottle.” left out
as §2, §3

[4] = test system: urease; experiment: Percent inhibition versus time in soil (FIG. 1, FIG. 2); type: biochemical; settings: soil at 25° C. (FIG. 1) and 35° C. (FIG. 2); compared with phenyl phosphorodiamidate
Procedure: FIG. 1 is a plot of percent inhibition versus time in soils at 25° C. for N,N-diethylphosphorictriamide, a urease inhibitor useful in the practice of this invention, and for the known urease inhibitor, phenyl phosphorodiamidate, and FIG. 2 is a plot of percent inhibition versus time in soil at 35° C. for the same compounds.

[5] = Solubility in water (as needed for efficacy test); type: physicochemical; settings: efficacy test application
[6] = 800 micrograms compound and 42.8 mg urea per 20 g soil
[7] = 200 micrograms compound per 20 g soil

CCCCCCCCNP(N)(N)=O [Compound 12, N-(n-Octyl)phosphoric Triamide]
% Inhibition, Preincubated for 11 days Open [1]: 66%
% Inhibition, Preincubated for 11 days at 25° C. [1]: 39%
% Inhibition, Preincubated for 11 days at 35° C. [1]: 36%
% Inhibition, No Preincubation [1]: 95%
% Inhibition Cazenovian pH 7.3 [2]: 98%
% Inhibition Wisconsin pH 5.3 [3, 6]: 51%

CN(C)P(N)(N)=O [Compound 2, N,N-Dimethylphosphoric Triamide]
% Inhibition Cazenovian pH 7.3 [2]: 98%

CN(Cc1ccccc1)P(N)(N)=S [Compound 16, N-Benzyl-N-methylthiophosphoric Triamide]
% Inhibition Cazenovian pH 7.0 [2]: 43%
% Inhibition Wisconsin pH 5.3 [3, 7]: 24%

NP(N)(=O)Oc1ccccc1 [Phenyl Phosphorodiamidate, phenyl phosphorodiamidate, reference compound]
% Inhibition, Preincubated for 11 days Open [1]: 50%
% Inhibition, Preincubated for 11 days at 25° C. [1]: 26%
% Inhibition, Preincubated for 11 days at 35° C. [1]: 16%
% Inhibition, No Preincubation [1]: 76%

NP(N)(=O)N1CCCCC1 [Compound 6, N-(Diaminophosphinyl)piperidine]
% Inhibition Cazenovian pH 7.3 [2]: 94%

CCC(C)NP(N)(N)=S (stereo not shown) [Compound 20, N-(sec-Butyl)thiophosphoric Triamide]
% Inhibition Cazenovian pH 7.0 [2]: 65%
% Inhibition Wisconsin pH 5.3 [3, 7]: 51%

CCCCCCNP(N)(N)=S [Compound 18, N-(n-Hexyl)thiophosphoric Triamide]
% Inhibition Cazenovian pH 7.0 [2]: 97%
% Inhibition Wisconsin pH 5.3 [3, 7]: 52%

CN(Cc1ccccc1)P(N)(N)=O [Compound 4, N-Benzyl-N-methylphosphoric Triamide]
% Inhibition Cazenovian pH 7.3 [2]: 96%

CN(C1CCCCC1)P(N)(N)=O [Compound 15, N-Cyclohexyl-N-methylphosphoric Triamide]
% Inhibition, Preincubated for 11 days Open [1]: 67%
% Inhibition, Preincubated for 11 days at 25° C. [1]: 78%
% Inhibition, Preincubated for 11 days at 35° C. [1]: 78%
% Inhibition, No Preincubation [1]: 80%
% Inhibition Cazenovian pH 7.3 [2]: 92%
% Inhibition Wisconsin pH 5.3 [3, 6]: 48%

CC(C)NP(N)(N)=O [Compound 7, N-Isopropylphosphoric Triamide]
% Inhibition Cazenovian pH 7.3 [2]: 97%

CCN(CC)P(N)(N)=S [Compound 14, N,N-Diethylthiophosphoric Triamide]
% Inhibition Cazenovian pH 7.3 [2]: 61%
% Inhibition Wisconsin pH 5.3 [3, 6]: 53%

NP(N)(=S)N1CCCCC1 [Compound 22, N-(Diaminothiophosphinyl)piperidine]
% Inhibition Cazenovian pH 7.0 [2]: 66%
% Inhibition Wisconsin pH 5.3 [3, 7]: 0%

NP(N)(=S)N1CCCC1 [Compound 19, N-(Diaminothiophosphinyl)pyrrolidine]
% Inhibition Cazenovian pH 7.0 [2]: 77%
% Inhibition Wisconsin pH 5.3 [3, 7]: 23%

C=CCNP(N)(N)=O [Compound 3, N-Allylphosphoric Triamide]
% Inhibition Cazenovian pH 7.3 [2]: 93%

CCC(C)NP(N)(N)=O (stereo not shown) [Compound 11, N-(sec-Butyl)phosphoric Triamide]
% Inhibition, Preincubated for 11 days Open [1]: 77%
% Inhibition, Preincubated for 11 days at 25° C. [1]: 90%
% Inhibition, Preincubated for 11 days at 35° C. [1]: 85%
% Inhibition, No Preincubation [1]: 92%
% Inhibition Cazenovian pH 7.3 [2]: 96%
% Inhibition Wisconsin pH 5.3 [3, 6]: 66%

CCN(CC)P(N)(N)=O [Compound 1, N,N-Diethylphosphoric Triamide]
duration of the urease inhibiting activity [4]: much superior
% Inhibition Cazenovian pH 7.3 [2]: 94%

NP(N)(=O)NC1CCCCC1 [Compound 5, N-Cyclohexylphosphoric Triamide]
% Inhibition Cazenovian pH 7.3 [2]: 98%

CCNP(N)(N)=O [Compound 8, N-Ethylphosphoric Triamide]
% Inhibition, Preincubated for 11 days Open [1]: 72%
% Inhibition, Preincubated for 11 days at 25° C. [1]: 74%
% Inhibition, Preincubated for 11 days at 35° C. [1]: 55%
% Inhibition, No Preincubation [1]: 95%
% Inhibition Cazenovian pH 7.3 [2]: 99%
% Inhibition Wisconsin pH 5.3 [3, 6]: 47%

CCCCNP(N)(N)=O [Compound 9, N-(n-Butyl)phosphoric Triamide]
% Inhibition, Preincubated for 11 days Open [1]: 78%
% Inhibition, Preincubated for 11 days at 25° C. [1]: 75%
% Inhibition, Preincubated for 11 days at 35° C. [1]: 68%
% Inhibition, No Preincubation [1]: 96%
% Inhibition Cazenovian pH 7.3 [2]: 99%
% Inhibition Wisconsin pH 5.3 [3, 6]: 52%

CCCCN(CCCC)P(N)(N)=S [Compound 23, N,N-Di-(n-Butyl)thiophosphoric Triamide]
% Inhibition Cazenovian pH 7.0 [2]: 67%
% Inhibition Wisconsin pH 5.3 [3, 7]: 37%

CCCCCCCCCCCCNP(N)(N)=O [Compound 13, N-(n-Dodecyl)phosphoric Triamide]
% Inhibition Cazenovian pH 7.3 [2]: 81%
% Inhibition Wisconsin pH 5.3 [3, 6]: 28%

CC(C)N(C(C)C)P(N)(N)=S [Compound 21, N,N-Diisopropylthiophosphoric Triamide]
solubility in water [5]: too insoluble in water to obtain significant data

NP(N)(=S)NC1CCCCC1 [Compound 17, N-Cyclohexylthiophosphoric Triamide]
% Inhibition Cazenovian pH 7.0 [2]: 84%
% Inhibition Wisconsin pH 5.3 [3, 7]: 58%

CCCCNP(N)(N)=S [Compound 10, N-(n-Butyl)thiophosphoric Triamide]
% Inhibition, Preincubated for 11 days Open [1]: 94%
% Inhibition, Preincubated for 11 days at 25° C. [1]: 98%
% Inhibition, Preincubated for 11 days at 35° C. [1]: 89%
% Inhibition, No Preincubation [1]: 90%
% Inhibition Cazenovian pH 7.3 [2]: 98%
% Inhibition Wisconsin pH 5.3 [3, 6]: 95%
